Test results: paper PMC9196953 (Drug development research, 1999)
Where two headings read alike, the source gives them in different places.

Legend:
rat A1 receptors = target: T1, rat A1 receptors (Rattus norvegicus, UniProt P25099); assay: Displacement of [3H]R-PIA binding to A1 receptors in rat brain membranes; conditions: read-out: Ki rA1
T1 construct: to A1 receptors from rat cerebral cortical membranes; from tissue; host or cells: rat cerebral cortical membranes
T1 sequence (P25099 1-326): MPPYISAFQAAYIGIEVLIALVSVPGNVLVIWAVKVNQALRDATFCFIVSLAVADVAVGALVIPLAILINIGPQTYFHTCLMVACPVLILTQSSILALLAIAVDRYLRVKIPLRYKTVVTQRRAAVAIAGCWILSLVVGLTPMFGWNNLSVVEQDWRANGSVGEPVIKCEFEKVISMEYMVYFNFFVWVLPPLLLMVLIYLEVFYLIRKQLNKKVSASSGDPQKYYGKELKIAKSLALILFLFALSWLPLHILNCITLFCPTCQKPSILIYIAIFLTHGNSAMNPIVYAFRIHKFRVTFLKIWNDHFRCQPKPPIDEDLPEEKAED
Experimental: (§1) All nonradioactive compounds were initially dissolved in DMSO and diluted with buffer to the final concentration, where the amount of DMSO never exceeded 2%. Incubations were terminated by rapid filtration over Whatman GF/B filters using a Brandell cell harvester. The tubes were rinsed three times with 3 mL buffer each.
(§2) At least six different concentrations of competitor, spanning 3 orders of magnitude adjusted appropriately for the IC50 value of each compound, were used. IC50 values, calculated with the nonlinear regression method implemented in Graph-Pad Prism (San Diego, CA) were converted to apparent Ki values as described by [Linden [1982]]. Hill coefficients of the tested compounds were in the range of 0.8–1.1.
(§3) At A2B receptors, two radioligand binding assays (Table 1) were used. Ki values of xanthine derivatives were determined in displacement of binding of the non-selective radioligands […], 8 (4-(2-[7-amino-2-{furyl}{1,2,4}triazolo{2,3-a}{1,3,5}tr nzyl)-8-phenyloxyacetate-1-propyl-xanthine), at human A2B receptors expressed in HEK-293 cell membranes [[Linden and Jacobson, 1998]]. In order to evaluate selectivity, selected derivatives were subjected to standard binding assays at A1, A2A, and A3 receptors. The initial screening utilized rat brain A1/A2A receptors (with radioligands [^3H]R-PIA and [^3H]CGS-21680), and selected compounds were examined at the recombinant human subtypes (Table 1), using [^3H]CPX ([^3H]8-cyclopentyl-1,3-dipropylxanthine) and ^125I-ZM 241385, ^125I-4-(2-[7-amino-2-[2-furyl][1,2,4]triazolo[2,3-a][1,3,5]triazin-5-yl-amino]ethyl)phenol) [[Palmer et al., 1996]].

rat A2A receptors = target: T2, rat A2A receptors (Rattus norvegicus, UniProt P30543); assay: Displacement of [3H]CGS 21680 binding to A2A receptors in rat striatal membranes; conditions: read-out: Ki rA2A
T2 construct: to A2A receptors from rat striatal membranes; from tissue; host or cells: rat striatal membranes
Experimental: as §1, §2, §3

human A3 receptors = target: T3, human A3 receptors (Homo sapiens, UniProt P0DMS8); assay: Displacement of [125I]AB-MECA binding at human A3 receptors expressed in HEK cells; conditions: read-out: Ki hA3
T3 construct: expressed in transfected cells; host or cells: HEK-293
T3 sequence (P0DMS8 1-318): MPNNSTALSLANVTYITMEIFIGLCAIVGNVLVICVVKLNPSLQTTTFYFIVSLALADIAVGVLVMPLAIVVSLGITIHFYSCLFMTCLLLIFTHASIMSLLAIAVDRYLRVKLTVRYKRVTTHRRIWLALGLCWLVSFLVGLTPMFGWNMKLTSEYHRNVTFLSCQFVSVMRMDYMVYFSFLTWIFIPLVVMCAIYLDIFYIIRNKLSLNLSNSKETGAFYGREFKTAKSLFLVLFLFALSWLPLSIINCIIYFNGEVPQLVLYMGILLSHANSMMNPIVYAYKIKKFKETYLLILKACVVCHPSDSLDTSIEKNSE
Experimental: as §3

human A2B receptors = target: T4, human A2B receptors (Homo sapiens, UniProt P29275); assay: Binding at human A2B receptors expressed in HEK-293 cells vs [3H]ZM241385; conditions: for rA1/hA2B: ratio of Ki rat A1 to Ki human A2B
T4 construct: expressed in transfected cells; host or cells: HEK-293
T4 sequence (P29275 1-332): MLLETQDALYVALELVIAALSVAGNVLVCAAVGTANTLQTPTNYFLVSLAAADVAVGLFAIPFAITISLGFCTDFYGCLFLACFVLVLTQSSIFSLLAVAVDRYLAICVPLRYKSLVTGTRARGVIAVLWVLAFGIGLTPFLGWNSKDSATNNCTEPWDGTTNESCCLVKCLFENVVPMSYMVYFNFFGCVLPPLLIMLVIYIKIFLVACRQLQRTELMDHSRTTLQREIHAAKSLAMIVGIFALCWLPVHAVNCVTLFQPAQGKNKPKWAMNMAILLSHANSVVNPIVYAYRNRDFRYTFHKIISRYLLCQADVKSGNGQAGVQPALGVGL
Experimental: The plasmid was amplified in competent JM109 cells and plasmid DNA isolated using Wizard Megaprep columns (Promega Corp., Madison, WI).
Colonies were selected by growth of cells in 0.6 mg/mL G418. Transfected cells were maintained in DMEM supplemented with Hams F12 nutrient mixture (1/1), 10% newborn calf serum, 2 mM glutamine, and containing 50 IU/mL penicillin, 50 μg/mL streptomycin, and 0.2 mg/mL Geneticin (G418, Boehringer Mannheim, Indianapolis, IN).
Confluent monolayers of HEK-A2B cells were washed with PBS followed by ice-cold Buffer A (10 mM HEPES, 10 mM EDTA, pH 7.4) with protease inhibitors ([…] benzamidine, […], and […] of each aprotinin, pepstatin, and leupeptin). The cells were homogenized in a Polytron (Brinkmann) for 20 sec, centrifuged at 30,000g, and the pellets washed twice with buffer HE (10 mM HEPES, 1 mM EDTA, pH 7.4 with protease inhibitors). The final pellet was resuspended in buffer HE, supplemented with 10% sucrose and frozen in aliquots at −80°C. For binding assays, membranes were thawed and diluted 5–10-fold with HE to a final protein concentration of approximately 1 mg/mL. […] After incubating for 20 min at room temperature, 50 mL of 10 mg/mL Na-metabisulfite in water was added the quench the reaction. The reaction products were applied to a C18 HPLC column using 4 mM phosphate, pH 6.0/methanol. […] The incubation time was 3 h at 21°C. […] Membranes were filtered on Whatman GF/C filters using a Brandell cell harvester (Gaithersburg, MD) and washed three times over 15–20 sec with ice-cold buffer (10 mM Tris, 1 mM MgCl2, pH 7.4). […] Data from replicate experiments are tabulated as means ± SEM.
At A2B receptors, two radioligand binding assays (Table 1) were used. […] In order to evaluate selectivity, selected derivatives were subjected to standard binding assays at A1, A2A, and A3 receptors.

[1] = HEK-293 cells, vs [3H]ZM241385, read-out: Ki hA2B
[2] = rounded values given in text, read-out: Ki at human A2B receptors

T2 sequence (P30543 whole entry): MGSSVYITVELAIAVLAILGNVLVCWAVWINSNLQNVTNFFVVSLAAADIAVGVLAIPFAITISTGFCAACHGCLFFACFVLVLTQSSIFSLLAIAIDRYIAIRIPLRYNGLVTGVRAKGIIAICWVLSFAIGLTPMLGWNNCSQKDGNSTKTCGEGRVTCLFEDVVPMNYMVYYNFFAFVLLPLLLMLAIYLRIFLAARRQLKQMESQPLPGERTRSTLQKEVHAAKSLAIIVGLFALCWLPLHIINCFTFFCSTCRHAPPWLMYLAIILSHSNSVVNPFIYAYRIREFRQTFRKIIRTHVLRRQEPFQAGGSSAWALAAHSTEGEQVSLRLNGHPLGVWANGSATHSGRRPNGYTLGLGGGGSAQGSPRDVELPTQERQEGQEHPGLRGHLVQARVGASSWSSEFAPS

SMILES | Ki (rat A1 receptors) [nM] | Ki (rat A2A receptors) [nM] | Ki (human A3 receptors) [nM] | Ki (human A2B receptors; [1]) [nM] | rA1/hA2B (human A2B receptors) | Ki (human A2B receptors; [2]) [nM]
CCCn1c(=O)c2nc(-c3ccc(OCC(=O)NN)cc3)[nH]c2n(CCC)c1=O [Compound 4c] | 16 ± 0.5 | 63.8 ± 21.3 | 498 ± 139 |  |  | 
CCCn1c(=O)c2[nH]c(-c3ccc(OCC(=O)NN4C(=O)C[C@H](NC(=O)C(F)(F)F)C4=O)cc3)nc2n(CCC)c1=O [Compound 11, 8-[4-[(Carboxymethyl)oxy]phenyl]-1,3-di-(n-propyl)xanthine N,N-[((2S)-Trifluoroacetamido)-succinyl]hydrazide] | 74.3 ± 6.6 | 139 ± 32 | 1560 | 30.2 ± 0.5 | 2.5 | 30
CCCn1c(=O)c2[nH]c(-c3ccc(OCC(=O)NN4C(=O)CCC(c5ccccc5)C4=O)cc3)nc2n(CCC)c1=O (stereo not shown) [Compound 12, 8-[4-[(Carboxymethyl)oxy]phenyl]-1,3-di-(n-propyl)xanthine N,N-[(2-Phenyl)glutaryl]hydrazide] | 3.87 ± 1.2 | 21.4 ± 6.1 | 151 ± 99 | 3.86 ± 0.7 | 1.0 | 
CCCn1c(=O)c2[nH]c(-c3ccc(OCC(=O)NN4C(=O)C=C(C)C4=O)cc3)nc2n(CCC)c1=O [Compound 13, 8-[4-[(Carboxymethyl)oxy]phenyl]-1,3-di-(n-propyl)xanthine N,N-Citraconylhydrazide] | 203 ± 41 | 1230 | 551 ± 106 | 144 ± 11 | 1.4 | 
CCCn1c(=O)c2[nH]c(-c3ccc(OCC(=O)NN4C(=O)C=C(c5ccccc5)C4=O)cc3)nc2n(CCC)c1=O [Compound 16, 8-[4-[(Carboxymethyl)oxy]phenyl]-1,3-di-(n-propyl)xanthine N,N-[(2-Phenyl)maleyl]hydrazide] | 225 ± 76 | 1540 | 748 ± 234 | 66.7 ± 37 | 3.4 | 67
CCCn1c(=O)c2[nH]c(-c3ccc(OCC(=O)NN4C(=O)C(c5ccccc5)=C(c5ccccc5)C4=O)cc3)nc2n(CCC)c1=O [Compound 17, 8-[4-[(Carboxymethyl)oxy]phenyl]-1,3-di-(n-propyl)xanthine N,N-[(1,2-Diphenyl)maleyl]hydrazide] | 95.8 ± 25.1 | 2100 | 3450 | 27.9 ± 8.5 | 3.4 | 28
CCCn1c(=O)c2[nH]c(-c3ccc(OCC(=O)NNC(=O)C4CC=CCC4C(=O)O)cc3)nc2n(CCC)c1=O (stereo not drawn) [Compound 18a, 8-[4-[(Carboxymethyl)oxy]phenyl]-1,3-di-(n-propyl)xanthine N-[2-((1-Carboxy)-cis-4-cyclohexene)-carbonyl]hydrazide] | 134 ± 19 | 813 ± 299 | 1060 | 51 ± 7 | 2.6 | 
CCCn1c(=O)c2[nH]c(-c3ccc(OCC(=O)NNC(=O)C4=C(C(=O)O)CCC4)cc3)nc2n(CCC)c1=O [Compound 19a, 8-[4-[(Carboxymethyl)oxy]phenyl]-1,3-di-(n-propyl)xanthine N-[2-((1-Carboxy)-1-cyclopentene)-carbonyl]hydrazide] | 81.7 ± 31.2 | 708 ± 169 | 1180 | 78.5 ± 20.5 | 1.0 | 
CCCn1c(=O)c2[nH]c(-c3ccc(OCC(=O)NN4C(=O)C5=C(CCC5)C4=O)cc3)nc2n(CCC)c1=O [Compound 19b, 8-[4-[(Carboxymethyl)oxy]phenyl]-1,3-di-(n-propyl)xanthine N,N-(1-Cyclopentene-1,2-dicarbonyl)-hydrazide] | 41.3 ± 6.4 | 1160 | 308 ± 88 | 21.5 ± 1.5 | 1.9 | 
CCCn1c(=O)c2[nH]c(-c3ccc(OCC(=O)NN4C(=O)C5=C(CCCC5)C4=O)cc3)nc2n(CCC)c1=O [Compound 20b, 8-[4-[(Carboxymethyl)oxy]phenyl]-1,3-di-(n-propyl)xanthine N,N-(3,4,5,6-Tetrahydrophthaloyl)-hydrazide] | 61.9 ± 11.3 | 415 ± 157 | 245 ± 45 | 35.8 ± 0.7 | 1.7 | 
CCCn1c(=O)c2[nH]c(-c3ccc(OCC(=O)NN4C(=O)CCCC4=O)cc3)nc2n(CCC)c1=O [Compound 22, 8-[4-[(Carboxymethyl)oxy]phenyl]-1,3-di-(n-propyl)xanthine N,N-Glutarylhydrazide] | 14 ± 2.3 | 135 ± 39 | 200 ± 45 | 22 ± 5.5 | 0.6 | 
CCCn1c(=O)c2[nH]c(-c3ccc(OCC(=O)NN4C(=O)CC(O)CC4=O)cc3)nc2n(CCC)c1=O [Compound 23, 8-[4-[(Carboxymethyl)oxy]phenyl]-1,3-di-(n-propyl)xanthine N,N-(3-Hydroxy)glutarylhydrazide] | 41.2 ± 16.6 | 164 ± 61 | 290 ± 88 | 25.7 ± 5.5 | 1.6 | 
CCCn1c(=O)c2[nH]c(-c3ccc(OCC(=O)NNC(=O)[C@H](CCC(=O)O)NC(=O)C(F)(F)F)cc3)nc2n(CCC)c1=O [Compound 24a, 8-[4-[(Carboxymethyl)oxy]phenyl]-1,3-di-(n-propyl)xanthine N-[(4-Carboxy-(2S)-Trifluoroacetamido)-n-butanoyl]hydrazide] | 70.8 ± 30.9 | 872 ± 412 | 430 ± 44 | 24.8 ± 7.3 | 2.9 | 25
CCCn1c(=O)c2[nH]c(-c3ccc(OCC(=O)NNC(=O)[C@H](CC(C)C)NC(=O)OC(C)(C)C)cc3)nc2n(CCC)c1=O [Compound 25, 8-[4-[(Carboxymethyl)oxy]phenyl]-1,3-di-(n-propyl)xanthine N-(N-tert-Butoxycarbonyl-L-leucinyl)-hydrazide] | 197 ± 67 | 2750 | 195 ± 84 | 47.5 ± 2.5 | 4.1 | 48
